{
  "source": "paper PMC12214830",
  "about": "“The human RIF1-Long isoform interacts with BRCA1 to promote recombinational fork repair under DNA replication stress” (Nature Communications, 2025)",
  "assay_type_in_all_cases": "cell-based, human",
  "key": {"[1]": {"test_system": "RIF1-L interaction with BRCA1", "assay": "RIF1-BRCA1 / RIF1-BRCA1-BRCT co-immunoprecipitation, Flp-In T-REx 293 cells", "conditions": "HU 4 mM, 4 h or 24 h; Fig. 5H, I", "method": "For mCherry IP and GFP IP, cells were washed once with ice-cold TBS, lysed with IP lysis buffer (1X TBS, 0.5 mM EDTA, 1% CHAPS, 1 mM PMSF, 3 mM MgCl2, 1X Halt Protease & Phosphatase inhibitor), and incubated with 1 µl/ml Benzonase (Sigma-Aldrich, E1014) for 45 min at 4 °C with rotation. RFP-Trap or GFP-Trap Magnetic Agarose beads (Chromotek) were washed three times in IP buffer 1 (1X TBS, 0.5 mM EDTA) and then incubated with cell lysates for 1 h at 4 °C with rotation. Beads were next washed three times with IP washing buffer (1X TBS, 0.5 mM EDTA, 0.1% CHAPS, 1 mM PMSF, 250 mM NaCl, 1X Halt Protease & Phosphatase inhibitor), after which bead-bound proteins (IP fractions) were eluted by heating at 95 °C for 7 min. IP fractions were analysed by western blotting.\nFor FLAG IP, cell lysates were prepared in the same way. Dynabeads magnetic beads (Invitrogen) were incubated with […] anti-FLAG antibody (Sigma-Aldrich, F1804) in PBS supplemented with 0.02% Tween-20) for 10 min at RT with rotation. The antibody-bound beads were incubated with cell lysates for 1 h at 4 °C with rotation. Beads were then washed three times with PBS, after which bead-bound proteins (IP fractions) were eluted by heating at 95 °C for 7 min. IP fractions were analysed by western blotting."}, "[2]": {"test_system": "RIF1-L phosphoS2265", "assay": "Western blot, RIF1-L phosphoS2265, HeLa cells", "conditions": "HU 4 mM 24 h", "method": "Cells were harvested in 10 mM Tris-HCl pH 7.5, 2 mM EDTA buffer and lysed with laemmli sample buffer (Bio-Rad, 1610737, supplemented with 5% β-mercaptoethanol). Samples were heated at 95 °C for 15 min and centrifuged at 13,000 × g for 15 min. Protein concentrations were measured by RC DC Protein Assay (Bio-Rad, 5000122). Equal amounts of total proteins for each sample were separated in Mini-PROTEAN TGX Stain-free Precast Gels (Bio-Rad) by SDS-PAGE. Gels were at this stage imaged with the ChemiDoc Touch Imaging System (Bio-Rad) using the ‘Protein gel – Stain free’ module to obtain stain-free gel images. Proteins on gel were transferred to PVDF membranes (Bio-Rad, 1704274) using the Trans-Blot Turbo Blotting System (Bio-Rad). Membranes were blocked in 3% BSA in TBS-T (1x TBS supplemented with 0.1% Tween-20) at RT for 1 h, followed by incubation with primary antibodies overnight at 4 °C. Membranes were washed with TBS-T and then incubated with secondary antibodies for 1 h at RT. The blots were developed with Clarity ECL reagents (Bio-Rad, 1705060) and imaged with the ChemiDoc Touch Imaging System (Bio-Rad). Primary antibodies used for western blotting include anti-RIF1 (Bethyl Laboratories, A300-568A. 1:5000); anti-RIF1-L-Phospho-S2265 (amsbio, custom. 1:5000); anti-BRCA1 (D-9) (Santa Cruz Biotechnology, sc-6954. 1:1000); anti-BARD1 (Bethyl Laboratories, A300-263A. 1:1000); anti-53BP1 (Novus Biologicals, NB100-94. 1:5000); anti-PP1α (G4) (Santa Cruz Biotechnology, sc-271762. 1:1000); anti-Tubulin (YOL1/34) (Santa Cruz Biotechnology, sc-53030. 1:4000); anti-FLAG (M2) (Sigma-Aldrich, F1804. 1:2000); anti-GFP (Chromotek, 3h9. 1:2000); anti-RFP (Chromotek, 5f8. 1:2000). Uncropped and unprocessed Western Blot images are provided in the Source Data file."}, "[3]": {"test_system": "GFP-RIF1-L / GFP-RIF1-L-pp1bs foci", "assay": "GFP-RIF1 foci formation, HeLa cells", "conditions": "HU 4 mM 24 h", "method": "Cells were grown on glass coverslips and treated as desired. Cells were then permeabilized with 0.5% TritonX-100 in PBS for 7 min on ice, and fixed with 4% w/v formaldehyde solution (Sigma HT5012) for 10 min at room temperature (RT). After fixation, coverslips were blocked with 3% BSA in PBS (RT, 1 h), incubated with primary antibodies (RT, 2 h), washed with PBS three times and incubated with secondary antibodies (RT, 1 h). Primary antibodies used for immunofluorescence include anti-γH2A.X (20E3) (Cell Signalling Technology, 9718. 1:500); anti-RPA32/RPA2 (9H8) (Abcam, ab2175. 1:200); anti-RAD51 (H92) (Santa Cruz Biotechnology, sc-8349. 1:100); anti-BrdU (B44) (BD Biosciences, 347580. 1:100); Coverslips were then mounted on glass slides with mounting medium with DAPI. Images were captured by either standard (Zeiss Axio Imager) or confocal (Zeiss LSM-880) microscopy. Fluorescence signal intensities within each nucleus were analysed by CellProfiler software with custom-made pipelines. Co-localisation analyses were performed with custom-made CellProfiler pipelines. Briefly, nuclei were identified and used to create masks. […]"}, "[4]": {"test_system": "RAD51 foci", "assay": "RAD51 foci formation, HeLa cells", "conditions": "24 h HU 4 mM", "method": "Cells were grown on glass coverslips and treated as desired. Cells were then permeabilized with 0.5% TritonX-100 in PBS for 7 min on ice, and fixed with 4% w/v formaldehyde solution (Sigma HT5012) for 10 min at room temperature (RT). After fixation, coverslips were blocked with 3% BSA in PBS (RT, 1 h), incubated with primary antibodies (RT, 2 h), washed with PBS three times and incubated with secondary antibodies (RT, 1 h). […] Fluorescence signal intensities within each nucleus were analysed by CellProfiler software with custom-made pipelines. […]\nFor proximity ligation assays and immunofluorescence signal intensity measurements, when comparing between two samples, statistical significance of differences was calculated by Mann-Whitney test for non-parametric distributions using GraphPad Prism software (v.9). When comparing among three or more samples, p values were calculated by Kruskal-Wallis test for non-parametric distributions with Dunn’s multiple comparisons using GraphPad Prism software (v.9). For RIF1 foci formation analysis (Fig. 6B), p values were calculated by two-tailed Student’s t test. For nuclear BRCA1 intensity fold change analyses (Fig. 6C, D), p values were calculated by two-tailed one-sample t test using GraphPad Prism software (v.9). For RAD51 foci formation analyses (Fig. 7B, E and Supplementary Fig. 7B), p values were calculated by chi-square test. […]"}},
  "data": [
    {"smiles": "NC(=O)NO", "note": "[HU, hydroxyurea]", "values": [
      {"measurement": "RIF1-L interaction with BRCA1", "setting": "[1]", "value": "increased RIF1-L interaction with BRCA1"},
      {"measurement": "RIF1-L phosphoS2265 western blot signal", "setting": "[2]", "value": "reduced RIF1-L phosphoS^2265 signal"},
      {"measurement": "HU-treated cells with distinct GFP-RIF1-L-pp1bs foci", "setting": "[3]; HeLa GFP-RIF1-L-pp1bs", "value": "~ 70%"},
      {"measurement": "HU-treated cells with clear GFP-RIF1-L foci", "setting": "[3]; HeLa GFP-RIF1-L", "value": "~ 10%"},
      {"measurement": "proportion of cells containing RAD51 foci", "setting": "[4]", "value": "greatly increased"}
    ]}
  ]
}
